Measurements reported in patent publication US9605042B2, “Compositions and methods related to tauopathy” (REGENTS OF THE UNIVERSITY OF MINNESOTA, priority 2012, dated 2017).
Peptide text beside a SMILES is read from it. * marks the point of attachment. Cbz = O=C(OCc1ccccc1)*; CH2F = FC*

Key:
recombinant caspase-2 = biological target: T1, recombinant caspase-2 (Homo sapiens, UniProt P42575); test: Screening assay: caspase-2-mediated cleavage of Asp314 peptide substrate (LabChip); type: biochemical; settings: substrate coincubated with recombinant caspase-2 and inhibitor, fluorescence by LabChip
T1 construct: made in house
T1 sequence (P42575 170-325 limits assumed): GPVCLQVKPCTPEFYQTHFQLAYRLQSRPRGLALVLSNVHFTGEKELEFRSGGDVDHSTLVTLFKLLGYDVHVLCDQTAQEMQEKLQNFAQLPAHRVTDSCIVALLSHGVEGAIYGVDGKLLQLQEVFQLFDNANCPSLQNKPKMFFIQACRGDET
T1 sequence (P42575 348-452 limits assumed): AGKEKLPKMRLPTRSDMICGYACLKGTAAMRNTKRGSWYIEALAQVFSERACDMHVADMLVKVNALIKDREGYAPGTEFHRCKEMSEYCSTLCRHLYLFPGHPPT
Description: FIG. 10. Caspase-2-mediated cleavage of Asp314 peptide substrate. Synthetic peptide substrate FITC-AHX-GSVQIVYKPVDLSKVTS-COOH (SEQ ID NO:4) was designed based on amino acids 304-320 of tau protein that encompasses Asp314 cleavage site. The peptide substrate was cleaved by coincubating with recombinant caspase-2 and was separated from cleavage product by using LabChip drug discovery system. The fluorescence emitted by FITC group was monitored to measure peptide quantity.
FIG. 11. Caspase inhibitor blocks caspase-2-mediated cleavage of Asp314 peptide substrate. Synthetic peptide substrate was coincubated with recombinant caspase-2 in the presence of general caspase inhibitor z-VAD-fmk. The fluorescence of the substrate peptide was measured by using LabChip drug discovery system.
Unless otherwise stated, chemicals were purchased from Sigma-Aldrich (St. Louis, Mo.). Caspase-2 was made in-house; reference Caspase-2 inhibitor Z-VAD-FMK was purchased from BD Pharmingen (San Diego, Calif.). […]
Plates were screened in a LabChip 3000 (Caliper Life Sciences Inc., Hopkinton, Mass.) with temperature and relative humidity set to 20° C. and 50%. A 12-sipper chip sampled contents from each well and measured the fluorescent intensity of the substrate and product peaks. […] Data were analyzed using Caliper's HTS Well Analyzer software.

[1] = tested on: recombinant caspases -1, -2, -3, -6, -7, -8, -9, or -10; test: Caspase cleavage assay of tau proteins (immunoblot with Tau-13); type: biochemical; settings: 50 μM inhibitor, 37° C., 2 hours, tau from three sources
Description: FIG. 5. Caspase-2 cleaves tau in vitro, producing a 35 kDa fragment. Recombinant caspases -1, -2, -3, -6, -7, -8, -9, or -10 were incubated at 37° C. for 2 hours with tau proteins derived from three different sources. […] Caspases-1 and -8 may cleave tau proteins near the N-terminus and remove Tau-13 mAb epitopes, preventing detection of proteolytic products. Arrows denote the 35 kDa fragment, and arrowheads denote the tau fragment truncated at D421.
Tau proteins (200 ng immunoprecipitates from rTg[tauP301L]4510 or rTg[tauWT]21221 brain lysates, or 1 μl synthetic proteins generated with TNT T7 Quick Coupled Transcription/Translation System [Promega Corp., Madison, Wis.]) were diluted in assay buffer (20 mM HEPES pH 7.2, 10 mM DTT, 1 mM EDTA, 0.1% CHAPS) to a final volume of 50 μl. One unit of recombinant caspase was added to the reactions in the presence or absence of 50 μM z-VAD-fmk (Calbiochem, EMD Biochemicals, San Diego, Calif.). The reactions were incubated at 37° C. for […] and stopped by adding Laemmli sample buffer (62.5 mM Tris-HCl [pH 6.8], 25% glycerol, 2% SDS, and 0.01% bromophenol blue).

caspase-7 = biological target: T2, caspase-7 (Homo sapiens, UniProt P55210); test: competitive binding assay against caspase-7 (PROMEGA-GLO 2); settings: read-out: K value (caspase-7)
T2 sequence (P55210 24-198 limits assumed): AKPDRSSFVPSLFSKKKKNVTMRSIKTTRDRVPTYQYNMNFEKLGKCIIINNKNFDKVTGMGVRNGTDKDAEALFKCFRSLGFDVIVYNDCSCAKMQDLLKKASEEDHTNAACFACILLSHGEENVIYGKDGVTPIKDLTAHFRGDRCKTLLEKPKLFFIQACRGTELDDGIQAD
T2 sequence (P55210 207-303 limits assumed): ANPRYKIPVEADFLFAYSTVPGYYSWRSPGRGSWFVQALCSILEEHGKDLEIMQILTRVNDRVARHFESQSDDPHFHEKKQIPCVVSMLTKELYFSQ

rat hippocampal neurons = test: GFP-tau-containing dendritic spines in neurons coexpressing DsRed and GFP-tau; type: cell-based; settings: rising concentration of caspase-2 inhibitor
Description: FIG. 15. Images of rat hippocampal neurons coexpressing Dsred and GFP-tagged wild-type tau or tau P301 L mutant. Neurons were treated with caspase-2 inhibitor Ac-VDVAD-CHO (SEQ ID NO:36) or caspase-3 inhibitor Ac-DEVD-CHO (SEQ ID NO:37) for 1 day.
FIG. 16. Quantification of total spines and GFP-tau-containing spines in neurons coexpressing DsRed and GFP-tau.
Based on methods described in Hoover et al., Neuron 2010, dissociated rat hippocampal primary neuron cultures were prepared. Briefly, a 25 mm glass coverslip (thickness, 0.08 mm) was glued over a 22 mm hole in the bottom of a 35 mm tissue culture dish using silicone sealant. Dissociated neuronal cultures from rat hippocampi at P1 were prepared. Neurons were plated onto prepared 35 mm tissue culture dishes at a density of 1×10^6 cells per dish. The age of cultured neurons was counted from the day of plating (1 DIV). Neurons at 7 DIV were transfected using a standard calcium phosphate precipitation method and allowed to grow to maturity (>3 weeks) to be imaged. Neurons were transfected with equivalent concentrations of constructs encoding various tau proteins. The plasmid encoding DsRed was cotransfected with tau constructs to visualize dendritic spines. Recombinant tau protein or TCP35 protein (10 μM) was directly added to culture medium 1 hour before imaging to stimulate neuronal cultures. […]

rTg4510 neurons = test: Excitatory synaptic transmission (mEPSCs) in rTg4510 neurons; type: cell-based, mouse; settings: 20 μM for two hours
Description: FIG. 17. Excitatory Synaptic Transmission in rTg4510 neurons treated with caspase-2 inhibitor. (A) Mean mEPSC amplitudes of rTg4510 neurons (−/− and +/+) treated with 20 μM caspase-2 inhibitor (Ac-VDVAD-CHO; SEQ ID NO:36) for two hours. […] Caspase-2 inhibitor had no effect on rTg4510 (−/−) neurons. (B) Mean mEPSC frequency of rTg4510 neurons (−/− and +/+) treated with 20 μM caspase-2 inhibitor for two hours. Caspase-2 inhibitor had no effect on rTg4510 neurons (−/− or +/+) frequencies.
Miniature excitatory postsynaptic […] (mEPSCs) were recorded at −55 mV in artificial cerebrospinal fluid (aCSF) containing 100 LM AP7 (NMDAR antagonist, Tocris Bioscience, UK), 1 μM TTX (sodium channel blocker, Tocris Bioscience, UK) and 50 μM bicuculline (GABA receptor antagonist, Sigma-Aldrich, St. Louis, Mo.). Electrophysiology experiments were conducted using AXON DIGIDATA 1440A data acquisition system (Molecular Devices, LLC, Sunnyvale, Calif.), AXOPATCH 200B amplifier (Molecular Devices, LLC, Sunnyvale, Calif.), pCLAMP10 software (Molecular Devices. LLC, Sunnyvale, Calif.). Data was analyzed using AxoGraph X software (Berkeley, Calif.).

Compound: benzyloxycarbonyl-Val-Ala-Asp-fluoromcthylketone (Cbz-Val-Ala-Asp-CH2F) [z-VAD-fmk]
- caspase-2-mediated cleavage of Asp314 peptide substrate (recombinant caspase-2): blocks
- cleavage of tau proteins by recombinant caspases [1]: blocked all cleavage

Compound: CC(=O)N[C@@H](Cc1ccc(O)cc1)C(=O)N[C@@H](CCCCN)C(=O)N1CCC[C@H]1C(=O)N[C@H](C(=O)N[C@H](C=O)CC(=O)O)C(C)C [SEQ ID NO:1, Ac-YKPVD-CHO] (Ac-YKPVD-aldehyde)
- Ki (caspase-7): > 100 µM

Compound: Ac-VDVAD-CHO (Ac-VDVAD-aldehyde)
- number of spines with tau (rat hippocampal neurons): decreases
- mean mEPSC amplitude, rTg4510 (−/−) neurons (rTg4510 neurons): no effect
- mean mEPSC frequency, rTg4510 neurons (−/− or +/+) (rTg4510 neurons): no effect
- mean amplitude of AMPA mEPSCs, rTg4510 (+/+) neurons (rTg4510 neurons; compared to vehicle): significantly increased
